Results from PubChem BioAssay (NCI).
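Compound exposure: 48 hours, 5 concentrations, 96-well plates. TGI marks complete inhibition of growth.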

Key:
Experiment in all cases: DTP human tumour cell line panel, 48 h
[1] = system: NCI-H460 lung
[2] = system: DU-145 prostate
[3] = system: HL-60(TB) leukemia
[4] = system: NCI-H226 lung
[5] = system: MCF7 breast
[6] = system: UACC-62 melanoma
[7] = system: OVCAR-4 ovarian
[8] = system: EKVX NSCLC
[9] = system: SK-OV-3 ovarian
[10] = system: NCI-H522 lung
[11] = system: SF-295 CNS
[12] = system: HS 578T breast
[13] = system: HOP-92 NSCLC
[14] = system: UO-31 renal
[15] = system: SNB-75 CNS
[16] = system: SR leukemia
[17] = system: 786-0 renal
[18] = system: RPMI-8226 leukemia
[19] = system: M14 melanoma
[20] = system: HT29 colon
[21] = system: SK-MEL-2 melanoma
[22] = system: CCRF-CEM leukemia
[23] = system: SN12C renal
[24] = system: NCI-H23 lung
[25] = system: OVCAR-5 ovarian
[26] = system: COLO 205 colon
[27] = system: NCI/ADR-RES ovarian
[28] = system: SW-620 colon
[29] = system: MDA-MB-231 breast
[30] = system: SNB-19 CNS
[31] = system: LOX IMVI melanoma
[32] = system: BT-549 breast
[33] = system: HCC-2998 colon
[34] = system: U251 CNS
[35] = system: HCT-15 colon
[36] = system: T-47D breast
[37] = system: ACHN renal
[38] = system: HCT-116 colon
[39] = system: RXF 393 renal
[40] = system: MALME-3M melanoma
[41] = system: K-562 leukemia
[42] = system: OVCAR-8 ovarian
[43] = system: A498 renal
[44] = system: OVCAR-3 ovarian
[45] = system: SK-MEL-28 melanoma
[46] = system: KM12 colon
[47] = system: UACC-257 melanoma
[48] = system: MOLT-4 leukemia
[49] = system: CAKI-1 renal
[50] = system: SF-268 CNS
[51] = system: A549 NSCLC
[52] = system: TK-10 renal
[53] = system: SK-MEL-5 melanoma
[54] = system: HOP-62 NSCLC
[55] = system: MDA-MB-435
[56] = system: PC-3 prostate
[57] = system: MDA-N
[58] = system: SF-539 CNS
[59] = system: IGROV1 ovarian
[60] = system: DMS 273 small cell lung
[61] = system: LXFL 529 NSCLC
[62] = system: M19-MEL melanoma
[63] = system: HOP-18 NSCLC
[64] = system: DLD-1 colon
[65] = system: DMS 114 small cell lung
[66] = system: KM20L2 colon

## O=[N+]([O-])c1ccc(-c2cc(O)c3nc4ccccc4n3c2)cc1
[1]
  TGI: > 100 µM
[2]
  TGI: > 100 µM
[3]
  TGI: > 100 µM
[4]
  TGI: > 100 µM
[5]
  TGI: > 100 µM
[6]
  TGI: > 31.6 µM
[7]
  TGI: > 100 µM
[8]
  TGI: > 100 µM
[9]
  TGI: > 100 µM
[10]
  TGI: > 100 µM
[11]
  TGI: > 100 µM
[12]
  TGI: > 100 µM
[13]
  TGI: > 100 µM
[14]
  TGI: > 100 µM
[15]
  TGI: > 76.2 µM
[16]
  TGI: > 100 µM
[17]
  TGI: > 100 µM
[18]
  TGI: > 100 µM
[19]
  TGI: > 100 µM
[20]
  TGI: > 100 µM
[21]
  TGI: > 100 µM
[22]
  TGI: > 100 µM
[23]
  TGI: > 100 µM
[24]
  TGI: > 100 µM
[25]
  TGI: > 100 µM
[26]
  TGI: > 100 µM
[27]
  TGI: > 100 µM
[28]
  TGI: > 100 µM
[29]
  TGI: > 100 µM
[30]
  TGI: > 100 µM
[31]
  TGI: > 100 µM
[32]
  TGI: > 100 µM
[33]
  TGI: > 100 µM
[34]
  TGI: > 100 µM
[35]
  TGI: > 100 µM
[36]
  TGI: > 100 µM
[37]
  TGI: > 100 µM
[38]
  TGI: > 100 µM
[39]
  TGI: > 100 µM
[40]
  TGI: > 100 µM
[41]
  TGI: > 100 µM
[42]
  TGI: > 100 µM
[43]
  TGI: > 100 µM
[44]
  TGI: > 100 µM
[45]
  TGI: > 100 µM
[46]
  TGI: > 100 µM
[47]
  TGI: > 100 µM
[48]
  TGI: > 100 µM
[49]
  TGI: > 100 µM
[50]
  TGI: > 100 µM
[51]
  TGI: > 100 µM
[52]
  TGI: > 100 µM
[53]
  TGI: > 100 µM
[54]
  TGI: > 94 µM
[55]
  TGI: > 31.6 µM
[56]
  TGI: > 100 µM
[57]
  TGI: > 100 µM
[58]
  TGI: > 100 µM
[59]
  TGI: > 100 µM

## NC(=S)N/N=C/c1nccc2ccccc12
[1]
  TGI: 4.94 µM
[60]
  TGI: 12.9 µM
[61]
  TGI: > 100 µM
[3]
  TGI: 4.23 µM
[6]
  TGI: 14.7 µM
[7]
  TGI: > 100 µM
[9]
  TGI: 8.52 µM
[10]
  TGI: 5.24 µM
[11]
  TGI: 2.03 µM
[13]
  TGI: > 100 µM
[14]
  TGI: 3.42 µM
[15]
  TGI: 13.6 µM
[16]
  TGI: 11.5 µM
[62]
  TGI: 3.41 µM
[18]
  TGI: > 100 µM
[63]
  TGI: > 100 µM
[20]
  TGI: > 100 µM
[21]
  TGI: > 100 µM
[64]
  TGI: > 100 µM
[23]
  TGI: > 100 µM
[24]
  TGI: 6.42 µM
[25]
  TGI: > 100 µM
[26]
  TGI: > 100 µM
[28]
  TGI: > 100 µM
[30]
  TGI: 32.7 µM
[31]
  TGI: 2.64 µM
[33]
  TGI: > 100 µM
[34]
  TGI: > 100 µM
[35]
  TGI: > 100 µM
[37]
  TGI: 1.01 µM
[38]
  TGI: > 100 µM
[39]
  TGI: 0.902 µM
[40]
  TGI: 0.476 µM
[65]
  TGI: 2.51 µM
[41]
  TGI: > 100 µM
[42]
  TGI: > 100 µM
[43]
  TGI: > 100 µM
[45]
  TGI: > 100 µM
[46]
  TGI: > 100 µM
[48]
  TGI: > 100 µM
[49]
  TGI: 58.7 µM
[50]
  TGI: 4.04 µM
[51]
  TGI: > 100 µM
[52]
  TGI: > 100 µM
[53]
  TGI: > 100 µM
[54]
  TGI: > 100 µM
[66]
  TGI: > 100 µM
[58]
  TGI: 9.11 µM
[59]
  TGI: > 100 µM
